Source: US10723741B1, “DNA polymerase IIIC inhibitors and use thereof” (Acurx Pharmaceuticals, LLC, priority 2018, dated 2020)
Values after ≈ are worked out from the molar mass of the structure shown.

How the values were obtained:
Type in all cases: cell-based
[1] = test system: Staphylococcus aureus NRS384 (MRSA); assay: Broth microdilution MIC, S. aureus NRS384 (MRSA); settings: Staphylococcus aureus; broth microdilution, 37° C., 20 hours; read-out: MIC NRS 384 (MRSA)
From the text: (§1) Bacteria tested are Staphylococcus aureus NRS384 (a methicillin-resistant Staphylococcus aureus, MRSA), Staphylococcus aureus ATCC 29213 (a methicillin-sensitive Staphylococcus aureus, MSSA), Streptococcus pneumoniae ATCC 49619, Enterococcus faecalis ATCC 29212, Enterococcus faecium ATCC 700221 (a vancomycin-resistant enterococcus, VRE), Bacillus subtilis ATCC 6633, and Escherichia coli ATCC 25922.
(§2) Staphylococcus aureus NRS384 was obtained from NARSA (Network on Antimicrobial Resistance in Staphylococcus aureus, now the strain collection is in BEI resources). Other bacterial isolates were from ATCC (The American Type Culture Collection). Upon receiving the bacteria samples from aforementioned institutes, the bacteria were cultured according to the manuals provided by the suppliers. The bacteria were stored in 25% glycerol (final concentration) at −80° C.
(§3) On the day of testing, the compounds were dissolved in pure DMSO (Sigma 276855-1L) to […] as stock. In a v-bottom 96-well plate (Axygen-wipp02280), 20 μl DMSO was added into well 2 to well 12 by manual pipetting. Into well 1, 12.8 μL of compound DMSO stock (20 mg/ml) was added and mixed with 27.2 μl DMSO by pipetting. Two fold serial dilutions were performed by transferring and mixing 20 μl of solution from well 1 to well 2, then well 2 to well 3 and so forth until well 11. The well 12 was loaded with 20 μl DMSO without compounds. This was drug ‘mother plate’. From well 1 to well 12, the drug concentrations in the mother plate were […] in DMSO. A multi-pipette was used to perform the serial dilutions. The concentration may be adjusted according to the potency of the compounds. An Echo® Acoustic liquid handling system may be used to replace manual pipetting to make the daughter plates.
(§4) One day prior to the day of MIC testing, bacterial strains were streaked out from −80° C. glycerol stocks onto MHA plates and incubated at 37° C. for 20 hours. Streptococcus pneumoniae was streaked on blood agar and incubated at 37° C. in 5% CO2. The single colonies were picked by using an inoculation loop (Greiner-731175) and suspended into 5 ml sterile saline. The turbidity of the suspension was adjusted to 0.10 (Siemens MicroScan turbidity meter), equal to ˜1.0×10^8 cfu/ml. The bacterial suspension was diluted 200× in corresponding test medium (Table 1). This was used to inoculate daughter plates.
(§5) For preparing u-bottom 96-well ‘daughter plates’ (Costar 3788), an aliquot of 1 μl solution from mother plate was then replicating transferred into the daughter plate using a multi-pipette.
(§6) An aliquot of 99 μl of the bacterial suspension was inoculated into each well of the daughter plates using a multi-pipette. Each well contained ˜5.0×10^5 cfu/ml bacteria, 1% DMSO and serially diluted compounds at 64, 32, 16, 8, 4, 2, 1, 0.5, 0.25, 0.125, 0.0625 and 0 μg/ml from well 1 to well 12 respectively, in 100 μl corresponding test medium.
(§7) The plates were incubated in ambient atmosphere and in a 37° C. incubator for 20 hours.
(§8) Compounds of the present invention were tested for antibacterial activity against a variety of bacterial organism including Bacillus subtilis, Staphylococcus aureus, Enterococcus faecalis, Enterococcus faecium, Streptococcus pneumoniae and Escherichia coli. […] Compounds described in Examples 2, 44, 53, 56, 90, 134, 212, 213, 214, 218, 222, 304, 305, and 307 had MIC of ≤1 μg/ml against S. aureus NRS 384 (MRSA) (μg/ml) and E. faecium ATCC 700221 (VRE) (μg/ml).

[2] = test system: Staphylococcus aureus ATCC 29213 (MSSA); assay: Broth microdilution MIC, S. aureus ATCC 29213 (MSSA); settings: broth microdilution, 37° C., 20 hours, read-out: MIC S. aureus ATCC 29213 (MSSA)
From the text: as §1, §2, §3, §4, §5, §6, §7, §8

[3] = test system: Enterococcus faecalis ATCC 29212; assay: Broth microdilution MIC, E. faecalis ATCC 29212; settings: ATCC29212, broth microdilution, 37° C., 20 hours, read-out: MIC E. faecalis ATCC 29212
From the text: as §1, §2, §3, §4, §5, §6, §7, §8

[4] = test system: Enterococcus faecium ATCC 700221 (VRE); assay: Broth microdilution MIC, E. faecium ATCC 700221 (VRE); settings: Enterococcus faecium; broth microdilution, 37° C., 20 hours; read-out: MIC E. faecium ATCC 700221 (VRE)
From the text: as §1, §2, §3, §4, §5, §6, §7, §8

[5] = test system: Streptococcus pneumoniae ATCC 49619; assay: Broth microdilution MIC, S. pneumoniae ATCC 49619; settings: ATCC49619, broth microdilution, 37° C., 20 hours, read-out: MIC S. pneumoniae ATCC 49619
From the text: as §1, §2, §3, §4, §5, §6, §7, §8

[6] = test system: Bacillus subtilis ATCC 6633; assay: Broth microdilution MIC, B. subtilis ATCC 6633; settings: ATCC6633, broth microdilution, 37° C., 20 hours, read-out: MIC B. subtilis ATCC 6633
From the text: as §1, §2, §3, §4, §5, §6, §7, §8

[7] = test system: Escherichia coli ATCC 25922; assay: Broth microdilution MIC, E. coli ATCC 25922 (MHIIB w & w/o 4 mM EDTA); settings: broth microdilution, 37° C., 20 hours; for MIC: Escherichia coli, ATCC25922, without EDTA, read-out: MIC E. coli ATCC 25922; for MIC E. coli ATCC 25922 + 4 mM EDTA: with 4 mM EDTA
From the text: as §1, §2, §3, §4, §5, §6, §7, §8

SMILES | MIC [1] | MIC [2] | MIC [3] | MIC [4] | MIC [5] | MIC [6] | MIC [7] | MIC E. coli ATCC 25922 + 4 mM EDTA [7]
Cn1ncc2nc(NCc3cccnc3)[nH]c(=O)c21 [Compound 5, 1-Methyl-5-(3-pyridylmethylamino)-6H-pyrazolo[4,3-d]pyrimidin-7-one] | > 64 µg/mL | > 64 µg/mL | > 64 µg/mL | > 64 µg/mL | > 64 µg/mL | > 64 µg/mL | > 64 µg/mL | >64 µg/mL
Cn1ncc2nc(NCc3ccncc3)[nH]c(=O)c21 [Compound 6, 1-Methyl-5-((pyridin-4-ylmethyl)amino)-1H-pyrazolo[4,3-d]pyrimidin-7(6H)-one] | > 64 µg/mL | > 64 µg/mL | > 64 µg/mL | > 64 µg/mL | > 64 µg/mL | > 64 µg/mL | > 64 µg/mL | >64 µg/mL
Cn1ncc2nc(NCCc3ccc(Cl)c(Cl)c3)[nH]c(=O)c21 [Compound 8, 5-((3,4-Dichlorophenethyl)amino)-1-methyl-1H-pyrazolo[4,3-d]pyrimidin-7(6H)-one] | > 64 µg/mL | > 64 µg/mL | > 64 µg/mL | > 64 µg/mL | > 64 µg/mL | > 64 µg/mL | > 64 µg/mL | >64 µg/mL
Cn1ncc2nc(Nc3ccc(Cl)c(Cl)c3)[nH]c(=O)c21 [Compound 9, 5-((3,4-Dichlorophenyl)amino)-1-methyl-1H-pyrazolo[4,3-d]pyrimidin-7(6H)-one] | > 64 µg/mL | > 64 µg/mL | > 64 µg/mL | > 64 µg/mL | > 64 µg/mL | > 64 µg/mL | > 64 µg/mL | >64 µg/mL

More lines, now with the values ahead:

MIC [1] | MIC [2] | MIC [3] | MIC [4] | MIC [5] | MIC [6] | MIC [7] | MIC E. coli ATCC 25922 + 4 mM EDTA [7] | SMILES
8 µg/mL (≈ 26 µM) | 8 µg/mL (≈ 26 µM) | 16 µg/mL (≈ 52 µM) | 8 µg/mL (≈ 26 µM) | 4 µg/mL (≈ 13 µM) | 4 µg/mL (≈ 13 µM) | > 64 µg/mL | 32 µg/mL | Cn1ncc2nc(NCc3ccc(Cl)c(F)c3)[nH]c(=O)c21 [Compound 1, 5-((4-chloro-3-fluorobenzyl)amino)-1-methyl-1H-pyrazolo[4,3-d]pyrimidin-7(6H)-one]
64 µg/mL (≈ 251 µM) | 32 µg/mL (≈ 125 µM) | 64 µg/mL (≈ 251 µM) | 32 µg/mL (≈ 125 µM) | 32 µg/mL (≈ 125 µM) | 32 µg/mL (≈ 125 µM) | > 64 µg/mL | >64 µg/mL | Cn1ncc2nc(NCc3ccccc3)[nH]c(=O)c21 [Compound 3, 5-(Benzylamino)-1-methyl-1H-pyrazolo[4,3-d]pyrimidin-7(6H)-one]
> 64 µg/mL | > 64 µg/mL | > 64 µg/mL | > 64 µg/mL | > 64 µg/mL | > 64 µg/mL | > 64 µg/mL | >64 µg/mL | Cn1ncc2nc(NCc3ccccn3)[nH]c(=O)c21 [Compound 4, 1-Methyl-5-((pyridin-2-ylmethyl)amino)-1H-pyrazolo[4,3-d]pyrimidin-7(6H)-one]
16 µg/mL (≈ 54.9 µM) | 16 µg/mL (≈ 54.9 µM) | 16 µg/mL (≈ 54.9 µM) | 8 µg/mL (≈ 27.5 µM) | 8 µg/mL (≈ 27.5 µM) | 8 µg/mL (≈ 27.5 µM) | > 64 µg/mL | >64 µg/mL | Cn1ncc2nc(NCc3ccc(F)c(F)c3)[nH]c(=O)c21 [Compound 7, 5-((3,4-Difluorobenzyl)amino)-1-methyl-1H-pyrazolo[4,3-d]pyrimidin-7(6H)-one]
